This is an account of results in patent publication US20060178415A1, “Azole derivatives as antifungal agents” (priority 2002, published 2006).

For the experiment, the system named is A. fum. Put plainly: In vitro antifungal MIC, NCCLS M38P broth method in RPMI 1640/MOPS pH 7. In kind it is cell-based, Aspergillus fumigatus. As to conditions: for MIC: Aspergillus fumigatus. The text has this: The in vitro evaluation of the antifungal activity of the compound of this invention (as shown in Table I) can be performed by determining the minimum inhibitory concentration (MIC) which is the concentration of the test compound in Rosewell Park Memorial Institute (RPMI) 1640 liquid medium buffered with 3-(Morpholino)propane sulfonic acid (MOPS) to pH 7, at which there is significant inhibition of the particular fungi. In practice the National Committee for Clinical Laboratory Standard (NCCLS) M27A document for Candida and Cryptococcus and M38P for Aspergillus was used to determine the MIC and readings recorded only when the Quality Control results fell into the acceptable range. After MIC results had been recorded, 100 μL from each of the well showing no growth was spread over Sabouraud Dextrose Agar (SDA) to determine the minimum fungicidal concentration (MFC).

Setting [1] is: A. fumigatus strain 1008, RPMI 1640, MOPS pH 7, read-out: MIC (A. fum.) 1008.
Setting [2] is: A. fumigatus strain Si-l, RPMI 1640, MOPS pH 7, read-out: MIC (A. fum.) Si-l.
The mark [3] stands for this setting: pH 7, read-out: MIC (A. fum.) 1008.
Setting [4] is: pH 7, read-out: MIC (A. fum.) Si-l.
The mark [5] stands for this setting: A. fumigatus strain 1008, RPMI 1640, MOPS pH 7.
Setting [6] is: A. fumigatus strain Si-l, RPMI 1640, MOPS pH 7.

A word on the MIC: it is the smallest concentration in the dilution series that meets the test's criterion for growth inhibition.

Converted amounts (≈) assume the structure as drawn. Like-named read-outs stand apart in the source and are kept apart here. Where only a bound is given, the exact number is not on record here.

For `C[C@@H](N(NC(=O)OC(C)(C)C)C(=O)Nc1ccc(OCC(F)(F)C(F)F)cc1)[C@](O)(Cn1cncn1)c1ccc(F)cc1F` [Compound No. 26, 1-t-Butoxycarbonyl-2-[(1R,2R)-2-(2,4-difluorophenyl)-2-hydroxy-1-methyl-3-(1H-1,2,4-triazol-1-yl)propyl]-4-[4(2,2,3,3-tetrafluoropropoxy)phenyl]semicarbazide], the MIC is more than 16 µg/mL under setting [1] and more than 16 µg/mL under setting [2].
For `C[C@@H](N(N)C(=S)Nc1cnc2ccccc2c1)[C@](O)(Cn1cncn1)c1ccc(F)cc1F` [Compound No. 39, 2-[(1R,2R)-2-(2,4-Difluorophenyl)-2-hydroxy-1-methyl-3-(1H-1,2,4-triazol-1-yl)propyl]-4-[quinolin-3-yl]thiosemicarbazide], the MIC under setting [3] amounted to 16 µg/mL (≈ 34.1 µM) and the MIC under setting [4] came to 4 µg/mL (≈ 8.52 µM).
As to `C[C@@H](n1ncn(-c2ccc(C(F)(F)F)cc2)c1=S)[C@](O)(Cn1cncn1)c1ccc(F)cc1F` [Compound No. 45, 2-[(1R,2R)-2-(2,4-difluorophenyl)-2-hydroxy-1-methyl-3-(1,2,4-triazol-1-yl)propyl]-4-[4-trifluoromethylphenyl]-(2H,4H)-1,2,4-triazol-3-thione], the MIC is 1 µg/mL (≈ 2.01 µM) under setting [1] and 0.5 µg/mL (≈ 1.01 µM) under setting [2].
In the same order, the values of `COc1ccc(NC(=O)N(NC(=O)OC(C)(C)C)[C@H](C)[C@](O)(Cn2cncn2)c2ccc(F)cc2F)c(OC)c1` [Compound No. 27, 1-t-Butoxycarbonyl-2-[(1R,2R)-2-(2,4-difluorophenyl)-2-hydroxy-1-methyl-3-(1H-1,2,4-triazol-1-yl)propyl]-4-[2,4-dimethoxyphenyl]semicarbazide] are more than 16 µg/mL and more than 16 µg/mL.
For the molecule `C[C@@H](N(N)C(=S)NCc1cccs1)[C@](O)(Cn1cncn1)c1ccc(F)cc1F` [Compound No. 36, 2-[(1R,2R)-2-(2,4-difluorophenyl)-2-hydroxy-1-methyl-3-(1H-1,2,4-triazol-1-yl)propyl]-4-[2-thiophenmethyl]thiosemicarbazide], the “MIC (A. fum.) 1008” value under setting [5] worked out at 4 µg/mL (≈ 9.12 µM). Moreover, the “MIC (A. fum.) Si-l” value under setting [6] is 2 µg/mL (≈ 4.56 µM).
With `C[C@@H](N(NC(=O)OC(C)(C)C)C(=S)Nc1ccc(-n2ncnn2)cc1)[C@](O)(Cn1cncn1)c1ccc(F)cc1F` [Compound No. 10, 1-t-Butoxycarbonyl-2-[(1R,2R)-2-(2,4-difluorophenyl)-2-hydroxy-1-methyl-3-(1H-1,2,4-triazol-1-yl)propyl]-4-[4-(1,2,3,4-tetrazol-2-yl)phenyl]thiosemicarbazide], the minimum inhibitory concentration (MIC) was more than 16 µg/mL under setting [1] and more than 16 µg/mL under setting [2].
On to `C[C@@H](N(NC(=O)OC(C)(C)C)C(=S)Nc1ccc(F)cc1F)[C@](O)(Cn1cncn1)c1ccc(F)cc1F` [Compound No. 2, 1-t-Butoxycarbonyl-2-[(1R,2R)-2-(2,4-difluorophenyl)-2-hydroxy-1-methyl-3-(1H-1,2,4-triazol-1-yl)propyl]-4-[2,4-difluorophenyl]thiosemicarbazide], for which the MIC by setting is: under setting [1], more than 16 µg/mL; under setting [2], more than 16 µg/mL.
With `C[C@@H](N(NC(=O)OC(C)(C)C)C(=S)Nc1ccc([N+](=O)[O-])cc1)[C@](O)(Cn1cncn1)c1ccc(F)cc1F` [Compound No. 8, 1-t-Butoxycarbonyl-2-[(1R,2R)-2-(2,4difluorophenyl)-2-hydroxy-1-methyl-3-(1H-1,2,4-triazol-1-yl)propyl]-4-[4-nitrophenyl]thiosemicarbazide], the minimum inhibitory concentration (MIC) reads like this: under setting [3], more than 16 µg/mL; under setting [4], more than 16 µg/mL.
With `COc1ccc(NC(=S)N(NC(=O)OC(C)(C)C)[C@H](C)[C@](O)(Cn2cncn2)c2ccc(F)cc2F)c(OC)c1` [Compound No. 4, 1-t-Butoxycarbonyl-2-[(1R,2R)-2-(2,4-difluorophenyl)-2-hydroxy-1-methyl-3-(1H-1,2,4-triazol-1-yl)propyl]-4-[2,4-dimethoxyphenyl]thiosemicarbazide], the MIC was more than 16 µg/mL under setting [1] and more than 16 µg/mL under setting [2].
In the case of `C[C@@H](N(N)C(=S)Nc1ccc(OCC(F)(F)C(F)F)cc1)[C@](O)(Cn1cncn1)c1ccc(F)cc1F` [Compound No. 31, 2-[(1R,2R)-2-(2,4-difluorophenyl)-2-hydroxy-1-methyl-3-(1H-1,2,4-triazol-1-yl)propyl]-4-[4-(2,2,3,3-tetrafluoropropoxy)phenyl]thiosemicarbazide], the MIC under setting [1] was 1 µg/mL (≈ 1.82 µM) and the MIC under setting [2] was found to be 0.25 µg/mL (≈ 0.456 µM).
For `C[C@@H](N(N)C(=S)Nc1ccc(Cl)cn1)[C@](O)(Cn1cncn1)c1ccc(F)cc1F` [Compound No. 37, 2-[(1R,2R)-2-(2,4-Difluorophenyl)-2-hydroxy-1-methyl-3-(1H-1,2,4-triazol-1-yl)propyl]-4-[3-chloropyridin-6-yl]thiosemicarbazide], in that order: 0.5 µg/mL (≈ 1.1 µM) and 1 µg/mL (≈ 2.2 µM).
Regarding `C[C@@H](N(N)C(=O)Nc1ccc(Cl)cc1)[C@](O)(Cn1cncn1)c1ccc(F)cc1F` [Compound No. 28, 2-[(1R,2R)-2-(2,4-difluorophenyl)-2-hydroxy-1-methyl-3-(1H-1,2,4-triazol-1-yl)propyl]-4-[4-chlorophenyl]semicarbazide], the MIC was more than 16 µg/mL under setting [3] and more than 16 µg/mL under setting [4].
Turning to `COC(=O)C(c1ccccc1)n1cnn([C@H](C)[C@](O)(Cn2cncn2)c2ccc(F)cc2F)c1=S` (stereo partly drawn) [Compound No. 50], the “MIC (A. fum.) 1008” value under setting [5] was more than 16 µg/mL. Further, under setting [6], the “MIC (A. fum.) Si-l” value was more than 16 µg/mL.
Regarding `C[C@@H](n1ncn(-c2ccc(-n3ncnn3)cc2)c1=S)[C@](O)(Cn1cncn1)c1ccc(F)cc1F` [Compound No. 44], the “MIC (A. fum.) 1008” value under setting [5] turned out to be 2 µg/mL (≈ 4.03 µM). The “MIC (A. fum.) Si-l” value under setting [6] is 2 µg/mL (≈ 4.03 µM).
With `C[C@@H](n1ncn(-c2ccc(OCC(F)(F)C(F)F)cc2)c1=S)[C@](O)(Cn1cncn1)c1ccc(F)cc1F` [Compound No. 42, 2-[(1R,2R)-2-(2,4-difluorophenyl)-2-hydroxy-1-methyl-3-(1,2,4-triazol-1-yl)propyl]-4-[4-(2,2,3,3-tetrafluoropropoxy)phenyl]-(2H,4H)-1,2,4-triazol-3-thione], the MIC by setting is: under setting [1], 0.25 µg/mL (≈ 0.448 µM); under setting [2], 0.125 µg/mL (≈ 0.224 µM).
Take `C[C@@H](N(NC(=O)OC(C)(C)C)C(=S)Nc1ccc(F)cc1)[C@](O)(Cn1cncn1)c1ccc(F)cc1F` [Compound No. 1]: the MIC reads like this: under setting [1], more than 16 µg/mL; under setting [2], more than 16 µg/mL.
As to `COC(=O)C(CC(C)C)n1cnn([C@H](C)[C@](O)(Cn2cncn2)c2ccc(F)cc2F)c1=S` (stereo partly drawn) [Compound No. 51, Methyl-2-isobutyl-2-[[(1R,2R)-2-(2,4-difluorophenyl)-2-hydroxy-1-methyl-3-(1H-1,2,4-triaolyl)propyl]-(2H,4H)-1,2,4-triazol-3-thion-4-yl]acetate], the “MIC (A. fum.) 1008” value under setting [5] was more than 16 µg/mL. Moreover, the “MIC (A. fum.) Si-l” value under setting [6] was less than 16 µg/mL.
In the same order, the values of `C[C@@H](N(N)C(=S)NCc1ccco1)[C@](O)(Cn1cncn1)c1ccc(F)cc1F` [Compound No. 35, 2-[(1R,2R)-2-(2,4-difluorophenyl)-2-hydroxy-1-methyl-3-(1H-1,2,4-triazol-1-yl)propyl]-4-[2-furanmethyl]thiosemicarbazide] are 4 µg/mL (≈ 9.47 µM) and 4 µg/mL (≈ 9.47 µM).
In the same order, the values of `C[C@@H](n1ncn(Cc2ccco2)c1=S)[C@](O)(Cn1cncn1)c1ccc(F)cc1F` [Compound No. 53, 2-[(1R,2R)-2-(2,4-Difluorophenyl)-2-hydroxy-1-methyl-3-(1H-1,2,4-triazol-1-yl)propyl]-4-[2-furanmethyl]-(2H,4H)-1,2,4-triazol-3-thione] are 8 µg/mL (≈ 18.5 µM) and 4 µg/mL (≈ 9.25 µM).
Consider “1-t-Butoxycarbonyl-2-[(1R,2R)-2-(2,4-difluorophenyl)-2-hydroxy-1-methyl-3-(1H-1,2,4-triazol-1-yl)propyl]-4-[4-[4-chlorophenyl]piperizin-1-yl]phenyl]thiosemicarbazide [Compound No. 12]”, for which, under setting [5], the “MIC (A. fum.) 1008” value was 0.25 µg/mL. For the same molecule, the “MIC (A. fum.) Si-l” value under setting [6] was found to be 0.25 µg/mL.
Take `C[C@@H](N(NC(=O)OC(C)(C)C)C(=O)Nc1ccc(Cl)cc1)[C@](O)(Cn1cncn1)c1ccc(F)cc1F` [Compound No. 25, 1-t-Butoxycarbonyl-2-[(1R,2R)-2-(2,4-difluorophenyl)-2-hydroxy-1-methyl-3-(1H-1,2,4-triazol-1-yl)propyl]-4-[4-chlorophenyl]semicarbazide]: the MIC is, setting by setting: under setting [3], more than 16 µg/mL; under setting [4], more than 16 µg/mL.
Turning to `C[C@@H](N(N)C(=S)Nc1ccc(O)cc1)[C@](O)(Cn1cncn1)c1ccc(F)cc1F` [Compound No. 30, 2-[(1R,2R)-2-(2,4-difluorophenyl)-2-hydroxy-1-methyl-3-(1H-1,2,4-triazol-1-yl)propyl]-4-[4-hydroxyphenyl]thiosemicarbazide], the MIC runs as follows: under setting [3], more than 16 µg/mL; under setting [4], more than 16 µg/mL.
For `C[C@@H](N(N)C(=S)Nc1ccc(C(F)(F)F)cc1)[C@](O)(Cn1cncn1)c1ccc(F)cc1F` [Compound No. 33, 2-[(1R,2R)-2-(2,4-difluorophenyl)-2-hydroxy-1-methyl-3-(1H-1,2,4-triazol-1-yl)propyl]-4-[4-trifluoromethylphenyl]thiosemicarbazide], the MIC is 4 µg/mL (≈ 8.22 µM) under setting [1] and 2 µg/mL (≈ 4.11 µM) under setting [2].
Regarding `C[C@@H](n1ncn(-c2ccc([N+](=O)[O-])cc2)c1=S)[C@](O)(Cn1cncn1)c1ccc(F)cc1F` [Compound No. 43, 2-[(1R,2R)-2-(2,4-difluorophenyl)-2-hydroxy-1-methyl-3-(1,2,4-triazol-1-yl)propyl]-4-[4-nitrophenyl]-(2H,4H)-1,2,4-triazol-3-thione], the MIC amounted to 4 µg/mL (≈ 8.45 µM) under setting [3] and 2 µg/mL (≈ 4.22 µM) under setting [4].
